US20200038392A1, “TOPICAL COMPOSITIONS AND METHODS OF PREPARATION AND USE” (Aldeyra Therapeutics, Inc., priority 2018, published 2020)
Values after ≈ are worked out from the molar mass of the structure shown. Where two headings read alike, the source gives them in different places.

Legend:
[1] = Super-refined PEG 400 versus non-refined PEG 400: saturated solubility and chemical stability of ADX-102; type: physicochemical; conditions: in PEG 400 (non-super refined)
Experimental: The use and requirement of non-super refined PEG 400 as an excipient was investigated in view of to the higher cost of SR PEG 400. Saturated solubility and chemical stability of ADX-102 in PEG 400 (non-super refined) was performed as described above.

[2] = Saturated solubility of ADX-102 in DoE solvent systems; type: physicochemical; conditions: solvent system SS26; range in brackets
Experimental: Following the visual assessment of placebo formulations, a DoE mixture design for ADX-102 aqueous phase solvent systems was prepared, as shown in Table 22. This was performed in order to assess the solubility of ADX-102 in solvent systems and to confirm that at least a 1.0% w/w and a 5% w/w concentration of ADX-102 in the aqueous phase of the formulation was obtainable. The following excipient levels were assessed during the solvent system DoE experiments: • Water: 0-50% • Transcutol® HP: 0-20% • SR PEG 400: 0-60% • Ethanol: 0-20% • Propylene glycol: 0-15%
SS19, along with SS20 (SS21 was not used due to the high levels of Transcutol® HP), were used as a base for further solvent system development. SS23-SS26 were prepared, broadly based on these systems, with varying levels of excipient and added antioxidant/stabilizer, and preservative. The compositions of these solvent systems are detailed in Table 25. Additionally, penetration enhancers were varied in the developed solvent system, with SS23 (based on SS19) including no Transcutol® and SS25 including diisopropyl adipate, and in the case of SS24, a humectant (glycerol). It should be noted that SS25 became turbid following the addition of diisopropyl adipate.
The solvent system SS26 was developed in order to manufacture a 5% w/w formulation. […]

[3] = type: physicochemical
Text: It is important to note that the comparison formulation has a nominal ADX-102 concentration of 1.0% w/w, which was higher than that observed in the aqueous phase of the comparison formulation (0.31% w/w). […] However, it is possible that oil phase excipients may assist in solubilizing ADX-102, allowing it to partition between phases.

[4] = Solubility of ADX-102 in potential receiver fluid systems; type: physicochemical; conditions: aqueous with cosolvent or surfactant or cyclodextrin
Experimental: The solubility of the drug in a range of receiver fluid systems was determined to ensure that drug release was not limited by the solubility of ADX-102 in the receptor compartment of Franz cells. The receiver fluids selected for investigation were: ethanol and water (50:50 v/v), 2% Brij 98 in ethanol and water (50:50 v/v), 20% PEG in water, 20% PEG 400 in ethanol and water (50:50 v/v) and 2% Tween 80 in water. The findings are summarized below.

[5] = ADX-102 oxidation investigation: peroxide spiking (H2O2, NMP) and high temperature stress in PEG 400; type: physicochemical; conditions: both peroxide spiking experiments (H2O2 and NMP); t=48 h at 70° C.
Experimental: A preliminary study was performed in an attempt to degrade ADX-102 to a suitable level such that oxidation products observed during long-term stability could be detected. To this end, an ADX-102 in PEG 400 stock solution (0.1% w/w) was prepared and degraded with hydrogen peroxide (H2O2) and N-methylpyrrolidone (NMP) at 0.1 and 1.0% w/w concentrations, respectively. Additionally, the stocks were stressed at 40 and 70° C. to increase degradation. […] Sufficient degradation of ADX-102 was observed following spiking with […] H2O2 and storage at 70° C. for 48 h condition and was therefore considered suitable for use in antioxidant/stabilizer selection experiments described below.

With `CC(C)(O)c1nc2ccc(Cl)cc2cc1N` [ADX-102, 2-[3-amino-6-chloro-quinolin-2-yl]-propan-2-ol] as the molecule, how does the Saturated solubility [1] read?
The Saturated solubility was over 20.00 % w/w.

What about the “ADX-102 saturated solubility (% w/w)” value [2] of the same molecule?
Its value is 6.85 (6.84-6.86) % w/w.

And the Saturated solubility [3]?
The Saturated solubility was 0.31 % w/w.

And the solubility [3]?
Its solubility is 0.31%.

And the solubility ([4]; receiver fluid 1: Ethanol and water (50:50 v/v))?
The solubility was 23.5 mg/mL (≈ 99.5 mM).

What about the solubility ([4]; receiver fluid 1: ethanol and water (50:50 v/v)) of the same molecule?
Its solubility is 23.6 mg/mL (≈ 99.5 mM).

And the solubility ([4]; receiver fluid 2: 2% Brij 98 in ethanol and water (50:50 v/v))?
The solubility was 28.3 mg/mL (≈ 120 mM).

What about the solubility ([4]; receiver fluid 3: 20% PEG 400 in water) of the same molecule?
The solubility was 1.31 mg/mL (≈ 5.53 mM).

And the solubility ([4]; receiver fluid 4: 20% PEG 400 in ethanol and water (50:50 v/v))?
The solubility was 20.5 mg/mL (≈ 86.4 mM).

And the solubility ([4]; receiver fluid 5: 2% Tween 80 in water)?
Its solubility is 26.3 mg/mL (≈ 111 mM).

And the solubility ([4]; receiver fluid systems for Franz cells, range over the investigated receiver fluid systems)?
The solubility was 1.31 to 28.4 mg/mL (≈ 5.53 to 120 mM).

And the “ADX-102 remaining after degradation” value [5]?
Its value is under 70%.
